Measurements published in paper PMC11573584, “Thanatin and vinyl sulfide analogues as narrow spectrum antimicrobial peptides that synergise with polymyxin B” (Frontiers in Pharmacology, 2024).
Values after ≈ are worked out from the molar mass of the structure shown. Where two headings read alike, the source gives them in different places. Numbered stars: 1 amine (or outer) side, 2 acyl side, 3 side chain; on linkers, the order of the positions; unused ones are H or OH. Bridge positions count the residues as written; N and C are the ends. Square brackets hold non-standard residues; d marks the D form. Peptide text beside a SMILES is read from it. X1 = C=C(CC(=O)[*:1])[*:2]; X2 = C=C(CC(=O)[*:2])[*:1]; Dap = NC[C@H](N)C(=O)O

Experiments:
E. coli BL21 = details: non-cation adjusted media, ref Sinha et al. (2022); cited from earlier work
From the text: (§1) TABLE 1 Minimum Inhibitory Concentrations (MICs) of thanatin* (5) and similar analogues against a variety of pathogens. | column: Minimum inhibitory concentration (µM) / Thanatin ^a ^, ^b (1); Minimum inhibitory concentration (µM) / Thanatin M21F ^b (4)

P. aeruginosa ATCC 27853 = details: non-cation adjusted media, ref Sinha et al. (2022); cited from earlier work
From the text: as §1

S. aureus ATCC 25923 = details: non-cation adjusted media, ref Sinha et al. (2022); cited from earlier work
From the text: as §1, with “(4) || TABLE 2 Minimum Inhibitory Concentrations (MICs) of thanatin* (5) and analogues (8–11) towards a variety of pathogens. | column: Minimum inhibitory concentration (µM) / 1 (Thanatin) ^a” for “(4)”

[1] = tested on: Candida albicans SC5314 (type strain); assay: microbe, parasite or virus in culture; format: cell-based; details: read-out: Minimum inhibitory concentration (MIC)
Method: Candida albicans SC5314 (type strain) was grown using RPMI 1640 media (with glutamine and phenol red, without bicarbonate). MIC assays were performed in accordance with the CLSI recommended protocol ([Clinical and Laboratory Standards Institute, 2006], Performance standards for antimicrobial susceptibility testing; sixteenth informational supplement. CLSI document M100-S16, Wayne, PA., 2006). See SI for further details. […]
Antimicrobial susceptibility of Candida albicans SC5314 (type strain) was assessed by broth
microdilution in accordance with the CLSI recommended protocols (Clinical and Laboratory Standards
Institute, 2006, Performance standards for antimicrobial susceptibility testing; sixteenth informational
supplement. CLSI document M100-S16, Wayne, PA., 2006). Briefly, a two-fold dilution series of the
test compounds (from 64 μM to 0.25 μM, final) was prepared in triplicate in polypropylene 96-well
plates, using RPMI 1640 media (with glutamine and phenol red, without bicarbonate). Inoculum was
prepared from a 24 h old culture by picking 5 colonies (~1 mm in diameter) and resuspending these in
0.85% saline. Upon vortex mixing, the resulting suspension was diluted to provide a solution with
absorbance equivalent to that of a 0.5 McFarland standard, approx. 0.1 OD at 530 nm (using 1 cm path
length cuvette). This suspension was then diluted 1:50 and a further 1:20 with RPMI 1640 media to as
to achieve a final inoculum of […] to 2.5 x 10^3 CFU/mL upon addition to the plate. The plates
were incubated at 35 °C for 48 h, at which time the MIC was determined as the lowest test concentration
at which no turbidity was observed across all three replicates. The assay was performed independently
on three occasions and the reported MIC defined as the lowest concentration in which agreement was
observed for all three biological replicates.

[2] = tested on: Staphylococcus aureus ATCC 29213; assay: microbe, parasite or virus in culture; format: cell-based; details: for MIC: read-out: Minimum inhibitory concentration (MIC)
Method: (§2) Staphylococcus aureus ATCC 29213, Pseudomonas aeruginosa (SVB-B9) (type strain) and Escherichia coli ATCC 25922 were grown in cation adjusted Mueller Hinton (MH) broth at 37°C with shaking (200 rpm). MIC assays were performed in accordance with the CLSI recommended protocols ([Clinical and Laboratory Standards Institute, 2006], Performance standards for antimicrobial susceptibility testing; sixteenth informational supplement. CLSI document M100-S16, Wayne, PA., 2006). See SI for further details.
(§3) 4 Antimicrobial Testing of Thanatin* (5) and Analogues 8 – 11
(§4) 4.1 Antibacterial Testing
(§5) Staphylococcus aureus ATCC 29213, Pseudomonas aeruginosa (SVB-B9) (type strain) and
(§6) Escherichia coli ATCC 25922 were grown in cation adjusted Mueller Hinton (CAMHB) broth at 37
(§7) °C with shaking (200 rpm). MIC assays were performed in accordance with the CLSI recommended
(§8) protocol (Clinical and Laboratory Standards Institute, 2006, Performance standards for antimicrobial
(§9) susceptibility testing; sixteenth informational supplement. CLSI document M100-S16, Wayne, PA.,
(§10) 2006). Briefly, a two-fold dilution series of the test compounds (from […], final) was
(§11) prepared in triplicate in polypropylene 96-well plates in CAMHB. Fresh cultures of bacteria grown for
(§12) ca. 6 h were diluted accordingly in fresh media before adding 50 µL of inoculum to each well of the
(§13) MIC plate, to achieve a final volume of 100 µL with a uniform CFU/ml of ~5 x105 in each well. A
(§14) growth control (untreated) and sterility control (non-inoculated) well was included for each test
(§15) compound replicate. Plates were incubated at 37 °C with shaking for 18 h before determining the MIC.
(§16) MIC values were determined as the lowest concentration at which no growth was observed consistently
(§17) across all three biological replicates of the assay and within triplicates of each test compound. […]

[3] = tested on: Escherichia coli ATCC 25922; format: cell-based
Method: as §2, §3, §4, §5, §6, §7, §8, §9, §10, §11, §12, §13, §14, §15, §16, §17

[4] = tested on: Pseudomonas aeruginosa (SVB-B9) (type strain); format: cell-based; details: 18 h
Method: as §2, §3, §4, §5, §6, §7, §8, §9, §10, §11, §12, §13, §14, §15, §16, §17

P. aeruginosa = details: ref Cirioni et al., 2011, cited from earlier work
E. coli ATCC 25922 = details: non-cation adjusted media, ref Wu et al. (2013); cited from earlier work
From the text: as §1, with “S-Thanatin ^a (3) || TABLE 2 Minimum Inhibitory Concentrations (MICs) of thanatin* (5) and analogues (8–11) towards a variety of pathogens. | column: Minimum inhibitory concentration (µM) / 1 (Thanatin) ^a” for “Thanatin M21F ^b (4)”

Row | Compound | MIC ([1]; SC5314, 48 h) [µM] | MIC ([2]; ATCC 29213, 18 h) [µM] | Minimum inhibitory concentration (MIC) ([3]; ATCC 25922, 18 h) [µM] | Minimum inhibitory concentration (MIC) ([4]; SVB-B9) (type strain) [µM] | further results
1 | thanatin M21F [Thanatin M21F (4)] | – | – | – | – | Minimum inhibitory concentration (MIC) (E. coli BL21): 0.5 µM; Minimum inhibitory concentration (MIC) (P. aeruginosa ATCC 27853): 0.5 µM; Minimum inhibitory concentration (MIC) (S. aureus ATCC 25923): 0.5 µM
2 | C=C1CC(=O)NCCCC[C@@H](C(=O)N[C@@H](CCC(N)=O)C(=O)N[C@@H](CCCNC(=N)N)C(=O)N[C@@H](Cc2ccccc2)C(N)=O)NC(=O)[C@H](CCCCN)NC(=O)CNC(=O)[C@H](CO)NC(=O)[C@H](CCCNC(=N)N)NC(=O)[C@H](CCCNC(=N)N)NC(=O)[C@H](CC(N)=O)NC(=O)[C@@H](NC(=O)[C@H](Cc2ccc(O)cc2)NC(=O)[C@@H](NC(=O)[C@@H](NC(=O)[C@@H]2CCCN2C(=O)[C@@H](NC(=O)[C@@H]2CCCN2C(=O)[C@H](CCCCN)NC(=O)[C@H](CCCCN)NC(=O)[C@H](CO)NC(=O)CN)C(C)C)[C@@H](C)CC)[C@@H](C)CC)CS1 [compound 10] (H-GSKKPVPIIYCNRRSGKKQRF-NH2; linker 11-18 via X2) | >64 | >64 | 4 (≈ 10.1 µg/mL) | >64 | –
3 | polymyxin B [PMB, reference compound] | – | – | – | – | Minimum inhibitory concentration (MIC) ([3]; E. coli ATCC 25922, cation adjusted Mueller Hinton broth, 37 °C, 18 h, ~5 x10^5 CFU/mL, triplicate, three biological replicates): 0.125 µM; Minimum inhibitory concentration (MIC) ([4]; P. aeruginosa (SVB-B9) type strain, cation adjusted Mueller Hinton broth, 37 °C, ~5 x10^5 CFU/mL, triplicate, three biological replicates): 0.125 µM
4 | C=C1CC(=O)NC[C@H](NC(=O)[C@H](Cc2ccc(O)cc2)NC(=O)[C@@H](NC(=O)[C@@H](NC(=O)[C@@H]2CCCN2C(=O)[C@@H](NC(=O)[C@@H]2CCCN2C(=O)[C@H](CCCCN)NC(=O)[C@H](CCCCN)NC(=O)[C@H](CO)NC(=O)CN)C(C)C)[C@@H](C)CC)[C@@H](C)CC)C(=O)N[C@@H](CC(N)=O)C(=O)N[C@@H](CCCNC(=N)N)C(=O)N[C@@H](CCCNC(=N)N)C(=O)N[C@@H](CO)C(=O)NCC(=O)N[C@@H](CCCCN)C(=O)N[C@H](C(=O)N[C@@H](CCC(N)=O)C(=O)N[C@@H](CCCNC(=N)N)C(=O)N[C@@H](Cc2ccccc2)C(N)=O)CS1 [compound 9] (H-GSKKPVPIIY[Dap]NRRSGKCQRF-NH2; linker 11-18 via X1) | >64 | >64 | 16 (≈ 39.8 µg/mL) | >64 | reduction in potency compared to thanatin* (5) ([3]; E. coli ATCC 25922 MIC): 16 fold
5 | C=C1CC(=O)NCCCC[C@H](NC(=O)[C@H](Cc2ccc(O)cc2)NC(=O)[C@@H](NC(=O)[C@@H](NC(=O)[C@@H]2CCCN2C(=O)[C@@H](NC(=O)[C@@H]2CCCN2C(=O)[C@H](CCCCN)NC(=O)[C@H](CCCCN)NC(=O)[C@H](CO)NC(=O)CN)C(C)C)[C@@H](C)CC)[C@@H](C)CC)C(=O)N[C@@H](CC(N)=O)C(=O)N[C@@H](CCCNC(=N)N)C(=O)N[C@@H](CCCNC(=N)N)C(=O)N[C@@H](CO)C(=O)NCC(=O)N[C@@H](CCCCN)C(=O)N[C@H](C(=O)N[C@@H](CCC(N)=O)C(=O)N[C@@H](CCCNC(=N)N)C(=O)N[C@@H](Cc2ccccc2)C(N)=O)CS1 [compound 8] (H-GSKKPVPIIYKNRRSGKCQRF-NH2; linker 11-18 via X1) | >64 | >64 | 4 (≈ 10.1 µg/mL) | >64 | –
6 | C=C1CC(=O)NC[C@@H](C(=O)N[C@@H](CCC(N)=O)C(=O)N[C@@H](CCCNC(=N)N)C(=O)N[C@@H](Cc2ccccc2)C(N)=O)NC(=O)[C@H](CCCCN)NC(=O)CNC(=O)[C@H](CO)NC(=O)[C@H](CCCNC(=N)N)NC(=O)[C@H](CCCNC(=N)N)NC(=O)[C@H](CC(N)=O)NC(=O)[C@@H](NC(=O)[C@H](Cc2ccc(O)cc2)NC(=O)[C@@H](NC(=O)[C@@H](NC(=O)[C@@H]2CCCN2C(=O)[C@@H](NC(=O)[C@@H]2CCCN2C(=O)[C@H](CCCCN)NC(=O)[C@H](CCCCN)NC(=O)[C@H](CO)NC(=O)CN)C(C)C)[C@@H](C)CC)[C@@H](C)CC)CS1 [compound 11] (H-GSKKPVPIIYCNRRSGK[Dap]QRF-NH2; linker 11-18 via X2) | >64 | >64 | 8 (≈ 19.9 µg/mL) | >64 | –
7 | C[C@@H]1[C@H](O)[C@@H](C)/C=C/C=C/C=C/C=C/C=C/C=C/C=C/[C@H](O[C@@H]2O[C@H](C)[C@@H](O)[C@H](N)[C@@H]2O)C[C@@H]2O[C@](O)(C[C@@H](O)C[C@@H](O)[C@H](O)CC[C@@H](O)C[C@@H](O)CC(=O)O[C@H]1C)C[C@H](O)[C@H]2C(=O)O [AMB, amphotericin B, reference compound] | – | – | – | – | MIC ([1]; Candida albicans, C. albicans SC5314, RPMI 1640 media, 35 °C, 48 h, triplicate, three independent assays): 1 µM (≈ 0.924 µg/mL)
8 | S-thanatin [S-Thanatin (3)] | – | – | – | – | FICI (P. aeruginosa; S-thanatin with colistin (polymyxin E)): 0.46; MIC (P. aeruginosa): 16 mg/L; Minimum inhibitory concentration (MIC) (E. coli ATCC 25922): 1.6 µM
9 | CC[C@H](C)[C@H](NC(=O)[C@@H](NC(=O)[C@@H]1CCCN1C(=O)[C@@H](NC(=O)[C@@H]1CCCN1C(=O)[C@H](CCCCN)NC(=O)[C@H](CCCCN)NC(=O)[C@H](CO)NC(=O)CN)C(C)C)[C@@H](C)CC)C(=O)N[C@@H](Cc1ccc(O)cc1)C(=O)N[C@H]1CSSC[C@@H](C(=O)N[C@@H](CCC(N)=O)C(=O)N[C@@H](CCCNC(=N)N)C(=O)N[C@@H](Cc2ccccc2)C(N)=O)NC(=O)[C@H](CCCCN)NC(=O)CNC(=O)[C@H](CO)NC(=O)[C@H](CCCNC(=N)N)NC(=O)[C@H](CCCNC(=N)N)NC(=O)[C@H](CC(N)=O)NC1=O [Thanatin* (5), thanatin*] (H-GSKKPVPIIYCNRRSGKCQRF-NH2; disulfide 11-18) | >64 | >64 | 1 (≈ 2.43 µg/mL) | >64 | Minimum inhibitory concentration (MIC) ([2]; S. aureus ATCC 29213, cation adjusted Mueller Hinton broth, 37 °C, 18 h, ~5 x10^5 CFU/mL, triplicate, three biological replicates): no activity; selectivity towards E. coli over P. aeruginosa ([3]; ratio of MICs, P. aeruginosa (SVB-B9) vs E. coli ATCC 25922, cation adjusted media): > 64 fold
10 | CC1(C)S[C@@H]2[C@H](NC(=O)[C@H](N)c3ccc(O)cc3)C(=O)N2[C@H]1C(=O)O [AMX, amoxicillin, reference compound] | – | – | – | – | MIC ([2]; Staphylococcus aureus, ATCC29213, S. aureus ATCC 29213, cation adjusted Mueller Hinton broth, 37 °C, 18 h, ~5 x10^5 CFU/mL, triplicate, three biological replicates): 2 µM (≈ 0.731 µg/mL)
